Reference: patent US5462725A, “2-pyridylmethylenepolyazamacrocyclophosphonic acids, complexes and derivatives thereof, for use as contrast agents” (priority 1993, dated 1995)
Read-outs that look alike come from different tables or passages of the source.

Legend:
[1] = background; cited from earlier work
[2] = in vivo; cited from earlier work
[3] = background; cited from earlier work; remark: listed apart in the source
[4] = Biodistribution of 153Sm complex after tail vein injection; format: in vivo, Sprague Dawley rats; details: rat, i.v. tail vein; for % INJECTED DOSE, Blood: blood assumed 6.5% of body weight; for % INJECTED DOSE, Bone: femur x 25; for % INJECTED DOSE, Muscle: muscle assumed 43% of body weight
Method: Sprague Dawley rats were allowed to acclimate for five days then injected with 100 μL of the complex solution via a tail vein. The rats weighed between 150 and 200 g at the time of injection. After 30 min. the rats were killed by cervical dislocation and dissected. The amount of radioactivity in each tissue was determined by counting in a NaI scintillation counter coupled to a multichannel analyzer. The counts were compared to the counts in 100 μL standards in order to determine the percentage of the dose in each tissue or organ.
The percent dose in blood was estimated assuming blood to be 6.5% of the total body weight. The percent dose in bone was estimated by multiplying the percent dose in the femur by 25. The percent dose in muscle was estimated assuming muscle to be 43% of the total body weight. The number of rats used in the average is n.
In addition to organ biodistribution, chelates of the compounds of Formula (I) were evaluated for efficiency of bone localization since phosphonates are known for their ability to bind to hydroxyapatite.
When the complex ^153 Sm[N-(2-pyridylmethyl)-N',N",N'"-tris(methylenephosphonic acid ethyl ester)-1,4,7,10-tetraazacyclododecane] The numbers represent the average of a minimum of 2 rats per data point at 2 hours post injection.
When the complex ^153 Sm[N-(2-pyridylmethyl)-N',N",N'"-tris(methylenephosphonic acid propyl ester)-1,4,7,10-tetraazacyclododecane] The numbers represent the average of a minimum of 3 rats per data point at 2 and 24 hours post injection.

Row | SMILES | side effects / toxicity [1] | distribution and elimination [2] | % Complex (pH 1) | % Complex (pH 7) | % Complex (pH 9) | % Complex (pH 11) | % Complex (pH 14) | % Complex (pH 3) | % Complex (pH 5) | % INJECTED DOSE, Brain ([4]; 2 hours post injection) | % INJECTED DOSE, Heart ([4]; 2 hours post injection) | % INJECTED DOSE, Kidney ([4]; 2 hours post injection) | % INJECTED DOSE, Liver ([4]; 2 hours post injection) | % INJECTED DOSE, Lung ([4]; 2 hours post injection) | % INJECTED DOSE, Spleen ([4]; 2 hours post injection) | % INJECTED DOSE, Urine ([4]; 2 hours post injection) | % INJECTED DOSE, Blood ([4]; 2 hours post injection) | % INJECTED DOSE, Bone ([4]; 2 hours post injection) | % INJECTED DOSE, Muscle ([4]; 2 hours post injection) | other results
1 | [Cl][Gd]([Cl])[Cl] [GdCl3] | toxic to an animal | – | – | – | – | – | – | – | – | – | – | – | – | – | – | – | – | – | – | –
2 | CNC[C@H](O)[C@@H](O)[C@H](O)[C@H](O)CO.CNC[C@H](O)[C@@H](O)[C@H](O)[C@H](O)CO.O=C([O-])CN(CCN(CC(=O)[O-])CC(=O)O)CCN(CC(=O)[O-])CC(=O)O.[Gd+3] [Magnevist™, complex of gadolinium with diethylenetriaminepentaacetic acid] | – | freely distribute in extracellular fluid followed by efficient elimination through the renal system | – | – | – | – | – | – | – | – | – | – | – | – | – | – | – | – | – | –
3 | CC(O)CN1CCN(CC(=O)[O-])CCN(CC(=O)[O-])CCN(CC(=O)[O-])CC1.[Gd+3] (stereo not drawn) [Prohance™, [1,4,7-tris(carboxymethyl)-10-(2-hydroxypropyl)-1,4,7,10-tetraazacyclododecanato]gadolinium] | fewer side effects than Magnevist™ | freely distribute in extracellular fluid followed by efficient elimination through the renal system | – | – | – | – | – | – | – | – | – | – | – | – | – | – | – | – | – | kinetic stability of DO3A derivative chelates [3]: gains added kinetic stability by virtue of a pendant hydroxyl moiety
4 | O=C([O-])CN1CCN(CC(=O)[O-])CCN(Cc2ccccn2)CCN(CC(=O)[O-])CC1.[153Sm+3] [^153 Sm-PD3A] | – | – | 98.30% | 99.86% | 99.86% | 99.80% | 99.96% | – | – | – | – | – | – | – | – | – | – | – | – | % Complex (pH 2): 99.38%; % Complex (pH 4): 99.62%
5 | CCOP(=O)([O-])CN1CCN(Cc2ccccn2)CCN(CP(=O)([O-])OCC)CCN(CP(=O)([O-])OCC)CC1.[153Sm+3] [^153 Sm-PD3EP, ^153 Sm[N-(2-pyridylmethyl)-N',N",N'"-tris(methylenephosphonic acid ethyl ester)-1,4,7,10-tetraazacyclododecane]] | – | – | 78.95% | 93.77% | 95.89% | 95.77% | 94.07% | 93.80% | 93.02% | 0.01 % INJECTED DOSE | 0.01 % INJECTED DOSE | 1.24 % INJECTED DOSE | 0.36 % INJECTED DOSE | 0.02 % INJECTED DOSE | 0.01 % INJECTED DOSE | 97.00 % INJECTED DOSE | 0.45 % INJECTED DOSE | 0.82 % INJECTED DOSE | 0.62 % INJECTED DOSE | –
6 | CCCOP(=O)([O-])CN1CCN(Cc2ccccn2)CCN(CP(=O)([O-])OCCC)CCN(CP(=O)([O-])OCCC)CC1.[153Sm+3] [^153 Sm-PD3PP, ^153 Sm[N-(2-pyridylmethyl)-N',N",N'"-tris(methylenephosphonic acid propyl ester)-1,4,7,10-tetraazacyclododecane]] | – | – | 72.52% | 95.06% | 95.22% | 92.74% | 87.65% | 87.56% | 92.99% | 0.04 % INJECTED DOSE | 0.04 % INJECTED DOSE | 0.86 % INJECTED DOSE | 20.36 % INJECTED DOSE | 0.20 % INJECTED DOSE | 1.19 % INJECTED DOSE | 50.00 % INJECTED DOSE | 0.68 % INJECTED DOSE | 5.93 % INJECTED DOSE | 0.82 % INJECTED DOSE | % INJECTED DOSE, Large Intestine ([4]; 2 hours post injection): 0.18 % INJECTED DOSE; % INJECTED DOSE, Small intestine ([4]; 2 hours post injection): 13.56 % INJECTED DOSE; % INJECTED DOSE, Stomach ([4]; 2 hours post injection): 1.39 % INJECTED DOSE; % INJECTED DOSE, Brain ([4]; 24 hours post injection): 0.00 % INJECTED DOSE; % INJECTED DOSE, Feces ([4]; 24 hours post injection): 5.33 % INJECTED DOSE; % INJECTED DOSE, Heart ([4]; 24 hours post injection): 0.02 % INJECTED DOSE; % INJECTED DOSE, Kidney ([4]; 24 hours post injection): 0.89 % INJECTED DOSE; % INJECTED DOSE, Large Intestine ([4]; 24 hours post injection): 0.16 % INJECTED DOSE; % INJECTED DOSE, Liver ([4]; 24 hours post injection): 2.31 % INJECTED DOSE; % INJECTED DOSE, Lung ([4]; 24 hours post injection): 0.40 % INJECTED DOSE; % INJECTED DOSE, Small intestine ([4]; 24 hours post injection): 0.13 % INJECTED DOSE; % INJECTED DOSE, Spleen ([4]; 24 hours post injection): 0.22 % INJECTED DOSE; % INJECTED DOSE, Stomach ([4]; 24 hours post injection): 0.04 % INJECTED DOSE; % INJECTED DOSE, Urine ([4]; 24 hours post injection): 83.00 % INJECTED DOSE; % INJECTED DOSE, Blood ([4]; 24 hours post injection): 0.03 % INJECTED DOSE; % INJECTED DOSE, Bone ([4]; 24 hours post injection): 12.39 % INJECTED DOSE; % INJECTED DOSE, Muscle ([4]; 24 hours post injection): 0.27 % INJECTED DOSE
